The source of these data is PubChem BioAssay AID1996.

≈ marks a conversion by molar mass, not a printed value.

The conditions of the data set: buffer; pH 7.4; 200.0 µM.
As a reminder, the kinetic solubility is the concentration staying in solution when a stock, usually in DMSO, is diluted into the medium. With `Cc1cc(C)cc(NC(=O)CCN2CCOCC2)c1`, the kinetic solubility was greater than 39.4 µg/mL.

In the case of `CC(C)CCNC(=O)c1cc(-c2cccs2)nc2ccccc12`, the solubility (kinetic) was less than 0.3 µg/mL.

Turning to `COc1cc2c(cc1OC)C(c1ccccc1N)=NCC2`, the kinetic solubility was greater than 42.4 µg/mL.

Molecule `COc1ccc(/C=C/C2=Nc3ccccc3NC(C)(C)C2)cc1OC` came in with a kinetic solubility of 43 µg/mL (≈ 128 µM).

Consider `Cc1ccc(C(=O)NCCNC(=O)c2ccco2)cn1`, for which the kinetic solubility amounted to 31.7 µg/mL (≈ 116 µM).

`COc1cc(CN=C(C)c2c(O)n(C3CCCCC3)c(=O)[nH]c2=O)cc(OC)c1` yielded a solubility (kinetic) of less than 0.3 µg/mL.

In the case of `Cc1cc(OCC(=O)OCC(=O)NCc2cccs2)ccc1Cl`, the solubility (kinetic) came to 14 µg/mL (≈ 39.6 µM).

`CN(CCO)c1nc(N)c2c(N)nc3c(c2c1C#N)CC(=O)N3C1CCCC1` gave a solubility (kinetic) of 10.7 µg/mL (≈ 28.1 µM).

Take `Cc1cc(=O)[nH]c(Nc2cccc(F)c2)n1`: the solubility (kinetic) is greater than 32.9 µg/mL.

Consider `O=C(NCc1cccnc1)C12CC3CC(CC(C3)C1)C2`, for which the solubility (kinetic) is 38.7 µg/mL (≈ 143 µM).

The molecule `Cc1ccc(C)c(OCc2cc(C(=O)N3CCOCC3)no2)c1` registered a kinetic solubility of 42.1 µg/mL (≈ 133 µM).

In turn, `CCOC(=O)c1cnc2c(cnn2C)c1NCCCn1ccnc1` gave a solubility (kinetic) greater than 49.3 µg/mL.

`CC(C)(C)c1ccc(N2C(=O)CSC2c2cccnc2)cc1` (configuration not stated) showed a solubility (kinetic) of 43 µg/mL (≈ 138 µM).

`CC(C)CC(NC(=O)OC(C)(C)C)C(=O)O.O` (configuration not stated): the solubility (kinetic) is greater than 37.4 µg/mL.

The molecule `CNc1c(NC(=O)C2CCC(C)CC2)c(=O)oc2ccccc12` (configuration not stated) gave a solubility (kinetic) of 1.8 µg/mL (≈ 5.73 µM).

On to `CCOP(=O)(OCC)C(O)c1cccnc1` (configuration not stated), for which the kinetic solubility is greater than 36.8 µg/mL.

In the case of `CCn1c(=O)c([N+](=O)[O-])c(N2CCSCC2)c2ccccc21`, the kinetic solubility turned out to be 14.8 µg/mL (≈ 46.3 µM).

As for `Cc1cc(C(=O)Nc2cccc(S(=O)(=O)N3CCOCC3)c2)c2ccccc2n1`, the kinetic solubility came to 13.1 µg/mL (≈ 31.8 µM).

Turning to `COCc1nc2oc3ccc(F)cc3c(=O)c2cc1C(=O)OC`, the solubility (kinetic) came out at 10.4 µg/mL (≈ 32.8 µM).

With `Cc1cc(C)cc(OCCN2CCOCC2)c1`, the kinetic solubility worked out at 22.5 µg/mL (≈ 95.6 µM).

With `Cc1ccc(S(=O)(=O)n2c(N)nc3ccccc32)cc1`, the solubility (kinetic) came out at 2.7 µg/mL (≈ 9.4 µM).

Molecule `CCN1C(=O)CS/C1=N\S(=O)(=O)c1ccccc1` yielded a kinetic solubility greater than 42.7 µg/mL.

For `CC(C)NCC(=O)Nc1c2c(nc3ccccc13)CCC2.O=C(O)C(=O)O`, the solubility (kinetic) is greater than 56 µg/mL.

On to `CCc1ccccc1OCC(=O)OCC(=O)N1CC(=O)Nc2ccccc21`, for which the kinetic solubility turned out to be 35.7 µg/mL (≈ 96.9 µM).

The molecule `O=C(COC(=O)c1ccccc1Nc1ccccc1F)c1ccccc1` returned a kinetic solubility of less than 0.7 µg/mL.

`COc1cccc(-c2ccc3c(N)c(C(=O)NC4CC4)sc3n2)c1`: the kinetic solubility turned out to be 15.1 µg/mL (≈ 44.5 µM).

Regarding `CN(Cc1ccccc1)C1CCNCC1.Cl`, the kinetic solubility is greater than 41.6 µg/mL.

For the molecule `CCC1(C)Cc2ccccc2C(=O)N1` (configuration not stated), the solubility (kinetic) turned out to be 25.2 µg/mL (≈ 133 µM).

Molecule `COc1ccc(CCNC(=O)c2ccc(Br)cc2)cc1` registered a kinetic solubility of 1.3 µg/mL (≈ 3.89 µM).

`CC(=O)CCc1ccc(OCCCOc2cccc3cccnc23)cc1` registered a solubility (kinetic) of 25.5 µg/mL (≈ 73 µM). This solubility kinetic is about 20-fold higher than that of the molecule before.

`COCCNc1nc(N)c([N+](=O)[O-])c(N2CCCCCC2)n1` came in with a kinetic solubility of 6.3 µg/mL (≈ 20.3 µM).

Turning to `COCCCn1c(=S)[nH]c(C)c(C)c1=O`, the solubility (kinetic) is greater than 34.2 µg/mL.

On to `CS(=O)(=O)Nc1ccc(C(=O)Nc2ccccc2-c2ccccc2)cc1`, for which the kinetic solubility is 42.4 µg/mL (≈ 116 µM).

With `CN(C)/C=N/c1c(C#N)cnn1C`, the solubility (kinetic) was greater than 26.6 µg/mL.

Regarding `Cc1ccc(S(=O)(=O)N2CCc3ccccc3C2)cc1`, the solubility (kinetic) was less than 0.6 µg/mL.

As to `CC1CCCN(Cc2nc(Cc3ccccc3Cl)no2)C1` (configuration not stated), the kinetic solubility stood at 27 µg/mL (≈ 88.3 µM).

In turn, `O=C(COc1ncnc2ccccc12)Nc1ccccc1[N+](=O)[O-]` had a kinetic solubility of 14.6 µg/mL (≈ 45 µM).

Consider `Nc1c(Cl)nc(-c2ccccc2)nc1Cl`, for which the solubility (kinetic) came out at 7.9 µg/mL (≈ 32.9 µM).

Molecule `COc1ccc(CNC(=O)c2sccc2C)cc1` yielded a solubility (kinetic) greater than 39.2 µg/mL.

With `CC(=O)c1cn(CCOc2ccc(F)cc2)c2ccccc12`, the kinetic solubility came out at 10.8 µg/mL (≈ 36.3 µM).

Consider `O=C(NCCNc1ccc([N+](=O)[O-])cc1)c1cc(F)c(F)cc1Cl`, for which the kinetic solubility worked out at 2 µg/mL (≈ 5.62 µM).

On to `O=C(c1ccc(OC(F)(F)F)cc1)c1ncc[nH]1`, for which the kinetic solubility stood at 37.2 µg/mL (≈ 145 µM).
